Source: ChEMBL document CHEMBL2203238, “Hit to Lead optimization of a novel class of squarate-containing polo-like kinases inhibitors” (Bioorg Med Chem Lett, 2012)

Legend:
MIA PaCa-2 = experiment: Antitumor activity against human MIAPaCa2 cells xenografted in SCID mouse assessed as tumor growth inhibition at 100 mg/kg/day, po measured on day 35 relative to vehicle-treated control; assay type: functional; settings: MIA PaCa-2, 840 h, read-out: TGI
[1] = biological target: Rho-associated protein kinase 2 (Homo sapiens, UniProt O75116); experiment: Inhibition of recombinant ROCK2 after 1 hr by scintillation counter analysis in presence of gamma-[33P]ATP
Mus musculus = experiment: Toxicity in SCID mouse xenografted with human MIAPaCa2 cells assessed as body weight loss at 100 mg/kg/day, po measured on day 26 to day 44; assay type: organism-based, MIA PaCa-2; design: route oral; settings: in vivo
[2] = biological target: Hepatocyte growth factor receptor (Homo sapiens, UniProt P08581); experiment: Inhibition of recombinant c-MET after 1 hr by scintillation counter analysis in presence of gamma-[33P]ATP
[3] = biological target: Tyrosine-protein kinase Fyn (Homo sapiens, UniProt P06241); experiment: Inhibition of recombinant FYN after 1 hr by scintillation counter analysis in presence of gamma-[33P]ATP
[4] = biological target: 3-phosphoinositide-dependent protein kinase 1 (Homo sapiens, UniProt O15530); experiment: Inhibition of recombinant PDK1 after 1 hr by scintillation counter analysis in presence of gamma-[33P]ATP
[5] = biological target: Cyclin-dependent kinase 5 (Homo sapiens, UniProt Q00535); experiment: Inhibition of recombinant CDK5 after 1 hr by scintillation counter analysis in presence of gamma-[33P]ATP
[6] = biological target: Calcium/calmodulin-dependent protein kinase type IV (Homo sapiens, UniProt Q16566); experiment: Inhibition of recombinant CAMK4 after 1 hr by scintillation counter analysis in presence of gamma-[33P]ATP
[7] = Half life in mouse, iv; assay type: ADME, organism-based; settings: in vivo
[8] = biological target: Non-receptor tyrosine-protein kinase TYK2 (Homo sapiens, UniProt P29597); experiment: Inhibition of recombinant TYK2 after 1 hr by scintillation counter analysis in presence of gamma-[33P]ATP
[9] = biological target: Mitogen-activated protein kinase 1 (Homo sapiens, UniProt P28482); experiment: Inhibition of recombinant ERK2 after 1 hr by scintillation counter analysis in presence of gamma-[33P]ATP
[10] = biological target: Rho-associated protein kinase 1 (Homo sapiens, UniProt Q13464); experiment: Inhibition of recombinant ROCK1 after 1 hr by scintillation counter analysis in presence of gamma-[33P]ATP
[11] = biological target: Receptor tyrosine-protein kinase erbB-4 (Homo sapiens, UniProt Q15303); experiment: Inhibition of recombinant ERBB4 after 1 hr by scintillation counter analysis in presence of gamma-[33P]ATP
[12] = biological target: Receptor-type tyrosine-protein kinase FLT3 (Homo sapiens, UniProt P36888); experiment: Inhibition of recombinant FLT3 after 1 hr by scintillation counter analysis in presence of gamma-[33P]ATP
[13] = biological target: Serine/threonine-protein kinase PLK2 (Homo sapiens, UniProt Q9NYY3); experiment: Inhibition of recombinant PLK2 after 1 hr by scintillation counter analysis in presence of gamma-[33P]ATP
[14] = biological target: Vascular endothelial growth factor receptor 2 (Homo sapiens, UniProt P35968); experiment: Inhibition of recombinant KDR after 1 hr by scintillation counter analysis in presence of gamma-[33P]ATP
[15] = biological target: Vascular endothelial growth factor receptor 1 (Homo sapiens, UniProt P17948); experiment: Inhibition of recombinant FLT1 after 1 hr by scintillation counter analysis in presence of gamma-[33P]ATP
[16] = biological target: Tyrosine-protein kinase Lyn (Homo sapiens, UniProt P07948); experiment: Inhibition of recombinant LYN after 1 hr by scintillation counter analysis in presence of gamma-[33P]ATP
[17] = biological target: Serine/threonine-protein kinase 3 (Homo sapiens, UniProt Q13188); experiment: Inhibition of recombinant MST2 after 1 hr by scintillation counter analysis in presence of gamma-[33P]ATP
[18] = biological target: Interleukin-1 receptor-associated kinase 4 (Homo sapiens, UniProt Q9NWZ3); experiment: Inhibition of recombinant IRAK4 after 1 hr by scintillation counter analysis in presence of gamma-[33P]ATP
[19] = biological target: Protein kinase C delta type (Homo sapiens, UniProt Q05655); experiment: Inhibition of recombinant PKCdelta after 1 hr by scintillation counter analysis in presence of gamma-[33P]ATP
[20] = biological target: RAC-alpha serine/threonine-protein kinase (Homo sapiens, UniProt P31749); experiment: Inhibition of recombinant AKT1 after 1 hr by scintillation counter analysis in presence of gamma-[33P]ATP
[21] = biological target: Serine/threonine-protein kinase PLK4 (Homo sapiens, UniProt O00444); experiment: Inhibition of recombinant PLK4 after 1 hr by scintillation counter analysis in presence of gamma-[33P]ATP
[22] = biological target: Mitogen-activated protein kinase 9 (Homo sapiens, UniProt P45984); experiment: Inhibition of recombinant JNK2A2 after 1 hr by scintillation counter analysis in presence of gamma-[33P]ATP
[23] = Cmax in mouse at 50 mg/kg, po measured at 8 hrs; assay type: ADME, organism-based; design: dose 50 mg/kg, route oral; settings: in vivo
[24] = biological target: Glycogen synthase kinase-3 beta (Homo sapiens, UniProt P49841); experiment: Inhibition of recombinant GSK3B after 1 hr by scintillation counter analysis in presence of gamma-[33P]ATP
[25] = biological target: Serine/threonine-protein kinase PAK 1 (Homo sapiens, UniProt Q13153); experiment: Inhibition of recombinant PAK1 after 1 hr by scintillation counter analysis in presence of gamma-[33P]ATP
[26] = biological target: Mitogen-activated protein kinase 13 (Homo sapiens, UniProt O15264); experiment: Inhibition of recombinant P38delta after 1 hr by scintillation counter analysis in presence of gamma-[33P]ATP

Calcium/calmodulin-dependent protein kinase type IV, sequence (Q16566 whole entry): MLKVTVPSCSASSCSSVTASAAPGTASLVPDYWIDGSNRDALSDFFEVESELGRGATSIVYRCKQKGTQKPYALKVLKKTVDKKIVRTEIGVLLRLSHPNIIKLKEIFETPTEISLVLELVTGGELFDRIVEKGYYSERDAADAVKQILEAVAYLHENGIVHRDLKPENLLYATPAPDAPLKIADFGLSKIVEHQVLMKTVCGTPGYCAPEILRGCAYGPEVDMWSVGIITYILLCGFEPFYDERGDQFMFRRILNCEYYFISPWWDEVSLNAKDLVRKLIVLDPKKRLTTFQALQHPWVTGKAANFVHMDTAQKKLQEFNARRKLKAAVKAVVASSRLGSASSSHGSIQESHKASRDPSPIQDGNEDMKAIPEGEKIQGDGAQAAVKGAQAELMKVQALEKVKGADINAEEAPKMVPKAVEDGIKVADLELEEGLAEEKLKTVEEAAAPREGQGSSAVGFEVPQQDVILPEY
Tyrosine-protein kinase Fyn, sequence (P06241 whole entry): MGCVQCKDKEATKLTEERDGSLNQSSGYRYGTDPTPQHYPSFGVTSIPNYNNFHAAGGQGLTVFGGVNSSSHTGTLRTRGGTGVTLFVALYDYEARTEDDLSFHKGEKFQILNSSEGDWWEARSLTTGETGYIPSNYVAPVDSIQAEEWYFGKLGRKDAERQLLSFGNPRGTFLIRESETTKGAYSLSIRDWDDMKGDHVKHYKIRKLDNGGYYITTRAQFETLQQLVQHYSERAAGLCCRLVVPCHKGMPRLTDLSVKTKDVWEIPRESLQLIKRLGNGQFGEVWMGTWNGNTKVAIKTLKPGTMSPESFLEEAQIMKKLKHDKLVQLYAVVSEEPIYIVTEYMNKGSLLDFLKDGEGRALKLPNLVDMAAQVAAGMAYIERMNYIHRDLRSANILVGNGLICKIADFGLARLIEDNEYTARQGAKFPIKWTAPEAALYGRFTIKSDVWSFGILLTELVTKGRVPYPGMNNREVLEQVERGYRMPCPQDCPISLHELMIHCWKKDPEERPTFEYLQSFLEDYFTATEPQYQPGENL
Interleukin-1 receptor-associated kinase 4, sequence (Q9NWZ3 whole entry): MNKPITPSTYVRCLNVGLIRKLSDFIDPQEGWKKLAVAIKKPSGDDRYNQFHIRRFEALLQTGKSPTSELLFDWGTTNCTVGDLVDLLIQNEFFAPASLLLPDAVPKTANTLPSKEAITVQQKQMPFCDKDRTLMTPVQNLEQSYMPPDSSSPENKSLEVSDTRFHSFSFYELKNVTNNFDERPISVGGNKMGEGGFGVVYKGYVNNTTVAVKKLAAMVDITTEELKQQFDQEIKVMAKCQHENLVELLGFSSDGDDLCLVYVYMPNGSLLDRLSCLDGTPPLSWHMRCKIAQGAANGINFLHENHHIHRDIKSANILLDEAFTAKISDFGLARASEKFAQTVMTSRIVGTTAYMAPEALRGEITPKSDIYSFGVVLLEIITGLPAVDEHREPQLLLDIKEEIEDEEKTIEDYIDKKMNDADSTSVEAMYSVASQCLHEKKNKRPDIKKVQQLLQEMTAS
Mitogen-activated protein kinase 9, sequence (P45984 whole entry): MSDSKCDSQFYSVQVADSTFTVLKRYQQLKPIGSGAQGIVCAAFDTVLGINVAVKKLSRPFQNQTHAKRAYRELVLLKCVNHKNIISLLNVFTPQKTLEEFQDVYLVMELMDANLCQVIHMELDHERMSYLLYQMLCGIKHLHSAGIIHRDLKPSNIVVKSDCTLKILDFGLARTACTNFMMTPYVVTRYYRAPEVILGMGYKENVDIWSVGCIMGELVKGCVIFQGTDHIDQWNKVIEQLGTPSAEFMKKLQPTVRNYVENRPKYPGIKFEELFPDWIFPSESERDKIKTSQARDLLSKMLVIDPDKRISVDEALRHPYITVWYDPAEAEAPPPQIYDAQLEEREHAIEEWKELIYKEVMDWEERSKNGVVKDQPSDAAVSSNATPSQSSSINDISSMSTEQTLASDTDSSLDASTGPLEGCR
Vascular endothelial growth factor receptor 1, sequence (P17948 whole entry): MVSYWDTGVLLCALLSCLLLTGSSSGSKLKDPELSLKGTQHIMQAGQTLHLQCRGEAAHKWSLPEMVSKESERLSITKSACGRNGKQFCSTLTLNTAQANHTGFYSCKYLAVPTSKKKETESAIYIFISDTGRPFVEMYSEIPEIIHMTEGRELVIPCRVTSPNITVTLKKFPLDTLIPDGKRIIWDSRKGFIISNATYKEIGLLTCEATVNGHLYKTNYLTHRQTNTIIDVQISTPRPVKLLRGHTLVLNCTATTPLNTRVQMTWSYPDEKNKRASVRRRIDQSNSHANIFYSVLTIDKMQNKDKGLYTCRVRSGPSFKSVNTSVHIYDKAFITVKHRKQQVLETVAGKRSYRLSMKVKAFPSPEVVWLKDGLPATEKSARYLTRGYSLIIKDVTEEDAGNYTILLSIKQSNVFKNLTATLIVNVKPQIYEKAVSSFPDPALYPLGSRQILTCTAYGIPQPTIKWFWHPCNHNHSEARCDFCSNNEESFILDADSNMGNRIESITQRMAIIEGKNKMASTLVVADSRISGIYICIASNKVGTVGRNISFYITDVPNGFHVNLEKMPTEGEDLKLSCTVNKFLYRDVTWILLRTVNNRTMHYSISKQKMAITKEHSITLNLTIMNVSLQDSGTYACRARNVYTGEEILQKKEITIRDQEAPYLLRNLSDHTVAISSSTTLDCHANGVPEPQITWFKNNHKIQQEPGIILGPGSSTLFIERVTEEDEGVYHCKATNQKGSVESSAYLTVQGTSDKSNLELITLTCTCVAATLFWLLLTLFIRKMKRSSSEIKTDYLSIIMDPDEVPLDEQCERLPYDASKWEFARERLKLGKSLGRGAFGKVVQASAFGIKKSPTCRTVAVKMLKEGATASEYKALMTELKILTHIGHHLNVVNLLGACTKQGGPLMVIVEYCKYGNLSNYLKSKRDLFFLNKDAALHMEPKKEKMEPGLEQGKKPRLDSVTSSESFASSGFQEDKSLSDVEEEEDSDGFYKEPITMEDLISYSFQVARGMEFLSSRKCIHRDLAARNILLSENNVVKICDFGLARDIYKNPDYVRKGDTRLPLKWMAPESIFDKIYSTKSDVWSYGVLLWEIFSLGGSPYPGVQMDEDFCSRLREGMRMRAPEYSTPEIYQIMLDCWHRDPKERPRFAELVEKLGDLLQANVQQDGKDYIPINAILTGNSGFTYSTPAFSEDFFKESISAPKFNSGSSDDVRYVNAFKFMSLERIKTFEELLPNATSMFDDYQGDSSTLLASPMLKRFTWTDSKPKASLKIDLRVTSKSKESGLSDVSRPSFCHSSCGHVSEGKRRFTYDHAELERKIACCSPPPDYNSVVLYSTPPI
Glycogen synthase kinase-3 beta, sequence (P49841 whole entry): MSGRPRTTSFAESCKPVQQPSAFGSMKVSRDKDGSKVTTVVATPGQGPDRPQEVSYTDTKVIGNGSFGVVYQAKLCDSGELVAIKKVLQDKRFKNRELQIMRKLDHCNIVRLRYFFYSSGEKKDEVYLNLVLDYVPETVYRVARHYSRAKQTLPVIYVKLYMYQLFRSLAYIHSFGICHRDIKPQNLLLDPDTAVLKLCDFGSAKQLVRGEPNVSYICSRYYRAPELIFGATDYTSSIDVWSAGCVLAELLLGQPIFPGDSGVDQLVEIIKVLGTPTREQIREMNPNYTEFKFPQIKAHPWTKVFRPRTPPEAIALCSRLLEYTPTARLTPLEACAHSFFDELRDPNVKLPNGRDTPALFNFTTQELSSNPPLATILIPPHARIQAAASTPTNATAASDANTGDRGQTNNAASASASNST
Mitogen-activated protein kinase 1, sequence (P28482 whole entry): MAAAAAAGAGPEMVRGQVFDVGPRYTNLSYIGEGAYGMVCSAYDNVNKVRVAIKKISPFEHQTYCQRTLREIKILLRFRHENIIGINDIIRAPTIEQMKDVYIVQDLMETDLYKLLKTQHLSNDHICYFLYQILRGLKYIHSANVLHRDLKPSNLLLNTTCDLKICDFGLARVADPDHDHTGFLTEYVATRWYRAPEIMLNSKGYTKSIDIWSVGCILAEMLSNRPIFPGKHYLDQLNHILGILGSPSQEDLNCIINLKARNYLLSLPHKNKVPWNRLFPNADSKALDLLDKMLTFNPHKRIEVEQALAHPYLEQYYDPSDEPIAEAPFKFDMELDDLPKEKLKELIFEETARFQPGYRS
RAC-alpha serine/threonine-protein kinase, sequence (P31749 whole entry): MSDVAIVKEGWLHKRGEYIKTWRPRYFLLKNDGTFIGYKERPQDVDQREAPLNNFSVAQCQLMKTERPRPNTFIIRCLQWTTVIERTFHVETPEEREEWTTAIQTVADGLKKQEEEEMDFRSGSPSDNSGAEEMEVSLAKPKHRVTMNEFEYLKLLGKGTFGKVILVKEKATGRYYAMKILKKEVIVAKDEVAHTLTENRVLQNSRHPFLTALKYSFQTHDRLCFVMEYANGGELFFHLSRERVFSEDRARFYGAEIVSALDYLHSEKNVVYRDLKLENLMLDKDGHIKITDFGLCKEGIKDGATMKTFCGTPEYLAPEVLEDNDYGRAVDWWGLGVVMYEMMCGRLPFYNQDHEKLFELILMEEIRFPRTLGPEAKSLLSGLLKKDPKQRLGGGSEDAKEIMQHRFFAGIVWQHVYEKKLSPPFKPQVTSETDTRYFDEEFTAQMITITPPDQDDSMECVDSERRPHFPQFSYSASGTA
Tyrosine-protein kinase Lyn, sequence (P07948 whole entry): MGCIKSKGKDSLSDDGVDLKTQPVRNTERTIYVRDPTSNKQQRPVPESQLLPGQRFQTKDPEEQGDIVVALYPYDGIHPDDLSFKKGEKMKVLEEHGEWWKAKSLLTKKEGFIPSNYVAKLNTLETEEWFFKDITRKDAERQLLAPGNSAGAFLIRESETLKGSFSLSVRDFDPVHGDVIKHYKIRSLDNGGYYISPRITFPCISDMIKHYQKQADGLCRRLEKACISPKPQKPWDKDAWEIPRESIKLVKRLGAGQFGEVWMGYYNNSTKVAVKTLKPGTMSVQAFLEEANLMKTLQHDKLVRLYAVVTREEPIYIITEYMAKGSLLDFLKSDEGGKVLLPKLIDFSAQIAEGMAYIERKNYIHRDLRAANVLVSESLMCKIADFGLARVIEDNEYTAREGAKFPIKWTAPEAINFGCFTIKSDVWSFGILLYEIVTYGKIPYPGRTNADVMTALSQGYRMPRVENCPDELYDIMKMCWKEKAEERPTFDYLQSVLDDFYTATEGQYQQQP

CC(C)(C)Nc1c(Nc2ccnc(Nc3ccc(-c4ccncc4)cc3)n2)c(=O)c1=O
inhibition in vivo at 100 mg/kg/day (MIA PaCa-2): 38% | Ki [1]: 430 nM | Activity (Mus musculus): Non-toxic | Ki [2]: 1600 nM | Ki [3]: 328 nM | Ki [4]: 71 nM | Ki [5]: 416 nM | Ki [6]: > 8500 nM | half-life [7]: 20.4 min | Ki [8]: > 1900 nM | Ki [9]: 7200 nM | Ki [10]: 220 nM | Ki [11]: > 3700 nM | Ki [12]: 494 nM | Ki [13]: 2 nM | Ki [14]: 98 nM | Ki [15]: 14 nM | Ki [16]: > 1600 nM | Ki [17]: 2900 nM | Ki [18]: > 9900 nM | Ki [19]: 7.9 nM | Ki [20]: > 8000 nM | Ki [21]: 7 nM | Ki [22]: 262 nM | Cmax [23]: 3.3 µM | Ki [24]: 102 nM | Ki [25]: > 9700 nM | Ki [26]: 5900 nM
